From US20250115600A1, “COVALENT MODIFIERS OF AKT1 AND USES THEREOF” (Terremoto Biosciences, Inc., priority 2022, published 2025)

Tests used:
AKT1 WT [1] = molecular target: T1, AKT1 WT (Homo sapiens (Human), UniProt P31749); experiment: Live cell target engagement (NanoBRET) in HEK293 cells; type: cell-based; conditions: HEK293, 2 hours at 37° C.
Target sequence in this assay (P31749 whole entry): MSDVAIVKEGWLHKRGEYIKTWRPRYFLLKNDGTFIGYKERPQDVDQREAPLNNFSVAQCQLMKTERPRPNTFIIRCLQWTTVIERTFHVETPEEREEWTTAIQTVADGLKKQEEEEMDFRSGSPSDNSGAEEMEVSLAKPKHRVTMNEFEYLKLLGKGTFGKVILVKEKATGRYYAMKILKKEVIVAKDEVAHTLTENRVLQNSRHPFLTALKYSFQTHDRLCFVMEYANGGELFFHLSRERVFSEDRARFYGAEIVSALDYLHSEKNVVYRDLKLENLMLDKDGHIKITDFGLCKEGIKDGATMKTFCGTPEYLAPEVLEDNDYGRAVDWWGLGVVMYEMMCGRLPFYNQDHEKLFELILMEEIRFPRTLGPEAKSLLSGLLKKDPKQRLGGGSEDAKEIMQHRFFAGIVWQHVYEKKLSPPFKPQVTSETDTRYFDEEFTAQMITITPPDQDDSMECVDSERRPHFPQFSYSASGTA

AKT2 = AKT2 (Homo sapiens (Human), UniProt P31751); experiment: as above; type: cell-based; conditions: HEK293, 2 hours at 37° C.
AKT1 WT [2] = molecular target: T1, AKT1 WT; experiment: Dissociation rate by intact protein LCMS after ARQ092 chase; type: binding; conditions: compound 1.5 μM, 2 hours at 37° C., then ARQ092 50 μM
Description: (§1) AKT1 WT or AKT1 E17K (1 μM) were treated with a compound of Table 1 (1.5 μM) for 2 hours at 37° C., then ARQ092 (50 μM final concentration) was added to prevent aldehyde-containing compound rebinding after initial dissociation. At various timepoints, aliquots were removed and quenched with 5 mM NaBH4 for 5 min to capture the reversible imine through reductive amination. Reduction reactions were quenched by diluting the sample in equal volume acetonitrile+1% TFA, then analyzed by LCMS. Deconvoluted monoisotopic intensities of unmodified vs. compound-modified mass peaks were compared.
Target sequence in this assay (P31749 2-480): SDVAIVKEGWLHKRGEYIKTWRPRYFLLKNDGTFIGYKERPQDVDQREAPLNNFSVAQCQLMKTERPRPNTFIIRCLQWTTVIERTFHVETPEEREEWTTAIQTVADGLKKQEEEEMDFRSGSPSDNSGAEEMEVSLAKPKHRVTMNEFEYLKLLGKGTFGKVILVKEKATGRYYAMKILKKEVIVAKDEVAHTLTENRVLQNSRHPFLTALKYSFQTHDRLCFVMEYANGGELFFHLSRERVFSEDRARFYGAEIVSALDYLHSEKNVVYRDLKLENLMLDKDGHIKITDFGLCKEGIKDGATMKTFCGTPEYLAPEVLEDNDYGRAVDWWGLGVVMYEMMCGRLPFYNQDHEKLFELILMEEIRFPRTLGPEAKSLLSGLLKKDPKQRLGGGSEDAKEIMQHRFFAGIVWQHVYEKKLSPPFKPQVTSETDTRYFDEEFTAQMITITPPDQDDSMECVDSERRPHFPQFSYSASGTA

AKT1 E17K [3] = molecular target: T2, AKT1 E17K (Homo sapiens (Human), UniProt P31749, E17K); experiment: as above; type: binding; conditions: for AKT1 E17K t1/2: compound 1.5 μM, 2 hours at 37° C., then ARQ092 50 μM; for Off-rate Selectivity E17K/WT: ratio of t1/2
Description: as §1
Target sequence in this assay (P31749 2-480 E17K): as the sequence (P31749 2-480) above, with E16K counted along it

AKT1 E17K [4] = molecular target: T2, AKT1 E17K; experiment: Live cell target engagement (NanoBRET) in HEK293 cells; type: cell-based; conditions: for IC50: HEK293, 2 hours at 37° C.
Target sequence in this assay (P31749 whole entry E17K): as the sequence (P31749 whole entry) above, with E17K counted along it

AKT1 WT [5] = molecular target: T1, AKT1 WT; experiment: Intact mass spectrometry, covalent complex formation and ARQ-092 competition; type: binding; conditions: protein 1 μM, compound 1.5 μM, 2 hrs at 37° C., NaBH4 reduction; for covalent complex formation with AKT1 WT protein: absence of competitor; for covalent complex formation with AKT1 WT protein in presence of competitor: with ARQ092 (50 μM)
Description: (§2) AKT1 WT or AKT1 E17K (1 μM) was treated with a compound from Table 1 (1.5 μM) for 2 hrs at 37° C., with and without ARQ092 (50 μM) competitor as a specificity control. Reversible imines were captured by reductive amination with 5 mM NaBH4 for 5 min. Reduction reactions were quenched by diluting the sample in equal volume acetonitrile+1% TFA, then analyzed by LCMS.
(§3) FIGS. 1 to 25 provide intact mass spectra for AKT1 WT protein and AKT1 E17K mutant protein after incubation with compounds of the present disclosure and subsequent borohydride reduction. […] Further, FIGS. 1 to 10, 12, and 14 to 25 each provide intact mass spectra following the incubation of an AKT1 protein with a compound of the present disclosure both in the absence of a competitor molecule (i.e., ARQ-092, a molecule known to bind to and inhibit the function of AKT1); and in the presence of a significant stoichiometric excess of a competitor molecule.
Target sequence in this assay (P31749 2-480): as the sequence (P31749 2-480) above

AKT1 E17K mutant protein = AKT1 E17K mutant protein (Homo sapiens (Human), UniProt P31749, E17K); experiment: as above; type: binding; conditions: for covalent complex formation with AKT1 E17K mutant protein / covalent complex formation with AKT1 E17K mutant protein in presence of competitor: protein 1 μM, compound 1.5 μM, 2 hrs at 37° C., NaBH4 reduction; for covalent complex formation with AKT1 E17K mutant protein: absence of competitor; for covalent complex formation with AKT1 E17K mutant protein in presence of competitor: with ARQ092 (50 μM); for selectivity of complex formation, AKT1 E17K versus AKT1 WT: comparison of the spectra without competitor
Description: as §2, §3

AKT1 E17K mutant protein, sequence (P31749 2-480 E17K): as the sequence (P31749 2-480) above, with E16K counted along it
AKT2, sequence (P31751 whole entry): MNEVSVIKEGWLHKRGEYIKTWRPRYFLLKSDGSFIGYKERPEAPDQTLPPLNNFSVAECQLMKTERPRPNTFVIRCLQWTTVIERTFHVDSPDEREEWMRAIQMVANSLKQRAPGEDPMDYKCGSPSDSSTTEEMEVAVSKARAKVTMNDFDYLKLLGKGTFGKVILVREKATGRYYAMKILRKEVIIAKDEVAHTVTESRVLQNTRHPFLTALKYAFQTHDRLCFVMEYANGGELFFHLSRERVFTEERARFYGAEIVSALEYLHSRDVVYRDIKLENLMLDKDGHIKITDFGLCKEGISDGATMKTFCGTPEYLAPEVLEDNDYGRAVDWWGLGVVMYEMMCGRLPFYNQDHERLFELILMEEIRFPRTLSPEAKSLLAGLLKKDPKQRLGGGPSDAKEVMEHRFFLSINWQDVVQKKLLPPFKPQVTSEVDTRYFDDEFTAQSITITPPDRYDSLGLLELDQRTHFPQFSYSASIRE

IC50 (AKT1 WT [1]) [nM]	IC50 (AKT2) [nM]	AKT1 (WT) t1/2 (AKT1 WT [2]) [min]	AKT1 E17K t1/2 (AKT1 E17K [3]) [min]	Off-rate Selectivity E17K/WT (AKT1 E17K [3])	AKT1 E17K IC50: Selectivity vs AKT1 WT (AKT1 E17K [4])	AKT1 E17K IC50: Selectivity vs AKT2 (AKT1 E17K [4])	IC50 (AKT1 E17K [4]) [nM]	covalent complex formation with AKT1 WT protein (AKT1 WT [5])	SMILES	covalent complex formation with AKT1 WT protein in presence of competitor (AKT1 WT [5])	covalent complex formation with AKT1 E17K mutant protein (AKT1 E17K mutant protein)	covalent complex formation with AKT1 E17K mutant protein in presence of competitor (AKT1 E17K mutant protein)	selectivity of complex formation, AKT1 E17K versus AKT1 WT (AKT1 E17K mutant protein)
< 100	> 500	12	73.2	6.1	5.5	130	< 100	significant presence of covalent complex	Nc1ncccc1-c1nc2cccnc2n1-c1ccc(CNC(=O)C(F)c2ccc(C=O)c(O)c2)cc1 (centres unmarked) [Compound 74, N-({4-[2-(2-aminopyridin-3-yl)imidazo[4,5-b]pyridin-3-yl]phenyl}methyl)-2-fluoro-2-(4-formyl-3-hydroxyphenyl)acetamide]	Essentially no covalent complex formation	significant presence of a covalent complex	Essentially little to no covalent complex formation	
< 100	100 to 500	25	94.2	3.8	2.1	22	< 100	small level of a covalent complex	Nc1ncccc1-c1nc2ccc(-c3ccccc3)nc2n1-c1ccc(CNC(=O)c2ccc(O)c(C=O)c2)cc1 [Compound 73, N-(4-(2-(2-aminopyridin-3-yl)-5-phenyl-3H-imidazo[4,5-b]pyridin-3-yl)benzyl)-3-formyl-4-hydroxybenzamide]		presence of a covalent complex		selective for complex formation with AKT1 E17K

Second part, the compound before the results:

SMILES	IC50 (AKT1 WT [1]) [nM]	IC50 (AKT2) [nM]	AKT1 (WT) t1/2 (AKT1 WT [2]) [min]	AKT1 E17K t1/2 (AKT1 E17K [3]) [min]	Off-rate Selectivity E17K/WT (AKT1 E17K [3])	AKT1 E17K IC50: Selectivity vs AKT1 WT (AKT1 E17K [4])	AKT1 E17K IC50: Selectivity vs AKT2 (AKT1 E17K [4])	IC50 (AKT1 E17K [4]) [nM]	covalent complex formation with AKT1 WT protein (AKT1 WT [5])	covalent complex formation with AKT1 WT protein in presence of competitor (AKT1 WT [5])	covalent complex formation with AKT1 E17K mutant protein (AKT1 E17K mutant protein)	covalent complex formation with AKT1 E17K mutant protein in presence of competitor (AKT1 E17K mutant protein)	selectivity of complex formation, AKT1 E17K versus AKT1 WT (AKT1 E17K mutant protein)
Nc1ncccc1-c1nc2ccc(-c3ccccc3)nc2n1-c1ccc(C2(NC(=O)Cc3ccc(C=O)c(O)c3F)CC2)cc1 [Compound 31, N-(1-{4-[2-(2-aminopyridin-3-yl)-5-phenylimidazo[4,5-b]pyridin-3-yl]phenyl}cyclopropyl)-2-(2-fluoro-4-formyl-3-hydroxyphenyl)acetamide]	< 100	< 100	85.9	151	1.8	1.4	5.8	< 100	presence of a covalent complex	Essentially little to no covalent complex formation	significant presence of a covalent complex	Essentially little to no covalent complex formation	
Cc1ccc2nc(-c3cccnc3N)n(-c3ccc(C4(NC(=O)Cc5ccc(C=O)c(O)c5F)CC4)cc3)c2n1 [Compound 139, N-(1-{4-[2-(2-aminopyridin-3-yl)-5-methylimidazo[4,5-b]pyridin-3-yl]phenyl}cyclopropyl)-2-(2-fluoro-4-formyl-3-hydroxyphenyl)acetamide]	< 100	100 to 500	47.8			1.7	20	< 100	presence of a covalent complex	Essentially no covalent complex formation	significant presence of a covalent complex	lower level of covalent complex formation	selective for complex formation with AKT1 E17K
CC(=O)Nc1cc(CCNCc2ccc(-n3c(-c4cccnc4N)nc4ccc(-c5ccccc5)nc43)cc2)ccc1C=O [Compound 110, N-(5-(2-((4-(2-(2-aminopyridin-3-yl)-5-phenyl-3H-imidazo[4,5-b]pyridin-3-yl)benzyl)amino)ethyl)-2-formylphenyl)acetamide]	< 100	< 100	4.9	43.2	8.8	1.2	5.3	< 100	small presence of covalent complex	Essentially no covalent complex formation	significant presence of a covalent complex	Essentially little to no covalent complex formation	selective for complex formation with AKT1 E17K
Nc1ncccc1-c1nc2ccc(-c3ccccc3)nc2n1-c1ccc(CNCCc2ccc(C=O)cc2)cc1 [Compound 125, 4-(2-((4-(2-(2-aminopyridin-3-yl)-5-phenyl-3H-imidazo[4,5-b]pyridin-3-yl)benzyl)amino)ethyl)benzaldehyde]	100 to 500	100 to 500	45.3	176	3.9	0.28	0.39	100 to 500	only peaks corresponding to unmodified WT protein	only peaks corresponding to unmodified WT protein	presence of covalent complex	Essentially no covalent complex formation	
Nc1ncccc1-c1nc2ccc(-c3ccccc3)nc2n1-c1ccc(CNCCc2ccc(C=O)c(O)c2)cc1 [Compound 133, 4-(2-((4-(2-(2-aminopyridin-3-yl)-5-phenyl-3H-imidazo[4,5-b]pyridin-3-yl)benzyl)amino)ethyl)-2-hydroxybenzaldehyde]	< 100	100 to 500	22.7	126	5.6	1.4	4.7	< 100	a noticeable level of covalent complex was formed	essentially no covalent complex formation	a covalent complex between Compound 133 and AKT1 E17K mutant protein was observed	essentially no covalent complex formation	
Nc1ncccc1-c1nc2ccc(-c3ccccc3)nc2n1-c1ccc(CCNCc2ccc(C=O)c(O)c2)cc1 [Compound 72, 4-{[(2-{4-[2-(2-aminopyridin-3-yl)-5-phenylimidazo[4,5-b]pyridin-3-yl]phenyl}ethyl)amino]methyl}-2-hydroxybenzaldehyde]	< 100	< 100				1.7	18	< 100	significant presence of a covalent complex	Essentially no covalent complex formation	significant presence of a covalent complex	significantly smaller level of covalent complex formation	
